Results taken from patent US5470872A, “Benzopyranols” (Beecham Group plc, priority 1988, dated 1995).

Legend:
[1] = system: Spontaneously hypertensive rats; assay: Blood pressure lowering activity, tail cuff method, spontaneously hypertensive rats; format: in vivo, rat
Experimental: Blood Pressure Lowering Activity
Systolic blood pressures were recorded by a modification of the tail cuff method described by I. M. Claxton, M. G. Palfreyman, R. H. Poyser, R. L. Whiting, European Journal of Pharmacology, 37,179 (1976). A W+W BP recorder, model 8005 was used to display pulses. Prior to all measurements rats were placed in a heated environment (33.5°±0.5° C.) before transfer to a restraining cage. Each determination of blood pressure was the mean of at least 6 readings. Spontaneously hypertensive rats (ages 12-18 weeks) with systolic blood pressures >180 mmHg were considered hypertensive.

[2] = system: guinea pig tracheal spiral preparations; assay: Bronchodilation in vitro; guinea pig tracheal spiral preparations; format: cell-based; settings: Cavia porcellus, relaxation of guinea pig tracheal spirals, relative to total relaxation with 10^-3 M isoprenaline; for Emax: read-out: I.A (efficacy, Intrinsic Activity)
Experimental: (a) Bronchodilation in vitro; guinea pig tracheal spiral preparations
Male guinea pigs (300-600 g) were stunned by a blow to the head and bled from the carotid artery. The trachea was exposed, dissected free of connective tissue, and transferred to oxygenated krebs solution at 37° C. Next, spirals (2 per trachea) were prepared by cutting the whole trachea spirally along its longitudinal axis and then dividing this spiral lengthwise. Each preparation was mounted, using silk thread, in a 10 ml organ bath filled with krebs solution at 37° C. and bubbled with 5% CO2 with O2. The resting tension of the preparations was set at 2 g and changes in muscle tension were monitored isometrically by means of a UFI (2 oz) force and displacement transducer (Ormed Ltd) connected to a Linseis pen recorder. All preparations were allowed to equilibrate for 60 minutes. During this equilibration period the preparations were washed by upward displacement at 15 minute intervals and, if necessary, the resting tension was readjusted to 2 g using a mechanical micromanipulator system.
Once a steady resting tension had been obtained, the preparations were dosed cumulatively with the test compound (10^-8 -2×10^-5 M), and finally a maximum relaxation achieved by addition of 10^-3 M isoprenaline. The fall in tension evoked by the test compound was expressed as a percentage of the total relaxation evoked in the presence of 10^-3 M isoprenaline. Appropriate concentration-relaxation curves were then constructed and values for potency (IC50) and efficacy (Intrinsic Activity, I.A.) were obtained.
The composition of Krebs solution is: sodium chloride 118.07 mM, sodium hydrogen carbonate 26.19 mM, potassium chloride 4.68 mM, potassium orthophosphate 1.18 mM, magnesium sulphate septahydrate 1.8 mM and calcium chloride 2.52 mM; pH ca. 7.45.

| IC50 [2] [nM] | SMILES | Emax [2] [%] | also measured |
| --- | --- | --- | --- |
| 190 | CC1(C)Oc2ccc(C(F)(F)C(F)(F)F)cc2[C@@H](N2CCCC2=O)[C@@H]1O (relative stereo) [Example 1, Trans-3,4-Dihydro-2,2-dimethyl-6-pentafluoroethyl-4-(2-oxopyrrolidin-1-yl)-2H-1-benzopyran-3-ol] | 88 | % change in systolic B.P. 1 h ([1]; 0.1 mg/kg p.o.): -19 ± 3%; % change in systolic B.P. 2 h ([1]; 0.1 mg/kg p.o.): -30 ± 2%; % change in systolic B.P. 4 h ([1]; 0.1 mg/kg p.o.): -28 ± 2% |
| 71.5 | CC1(C)C=C(n2ccccc2=O)c2cc(C(F)(F)C(F)(F)F)ccc2O1 [Example 9, 2,2-Dimethyl-6-pentafluoroethyl-4-(2(1H)pyridon-1-yl)-2H-1-benzopyran] | 84 |  |
| 190 | CC1(C)C=C(N2CCCCC2=O)c2cc(C(F)(F)C(F)(F)F)ccc2O1 [Example 8, 2,2-Dimethyl-6-pentafluoroethyl-4-(2-oxopiperidin-1-yl)-2H-1-benzopyran] | 88 |  |
| 98 | CC1(C)C=C(N2CCCC2=O)c2cc(C(F)(F)C(F)(F)F)ccc2O1 [Example 2, 2,2-Dimethyl-6-pentafluoroethyl-4-(2-oxopyrrolidin-1-yl)-2H-1-benzopyran] | 96 | % change in systolic B.P. 1 h ([1]; 1.0 mg/kg p.o.): -38 ± 2%; % change in systolic B.P. 2 h ([1]; 1.0 mg/kg p.o.): -24 ± 10%; % change in systolic B.P. 4 h ([1]; 1.0 mg/kg p.o.): -18 ± 6% |
| 370 | CC1(C)Oc2ccc(C(O)C(F)(F)F)cc2[C@@H](N2CCCC2=O)[C@@H]1O (some centres unmarked) [Example 3] | 89 | % change in systolic B.P. 1 h ([1]; 0.3 mg/kg p.o.): -40 ± 10%; % change in systolic B.P. 2 h ([1]; 0.3 mg/kg p.o.): -29 ± 7%; % change in systolic B.P. 4 h ([1]; 0.3 mg/kg p.o.): -25 ± 7% |
|  | CC1(C)Oc2ccc(C(F)(F)C(F)(F)F)cc2[C@@H](N2CCCCC2=O)[C@@H]1O (relative stereo) [Example 4, Trans-3,4-dihydro-2,2-dimethyl-4-(2-oxopiperidin-1-yl)-6-pentafluoroethyl-2H-1-benzopyran-3-ol] | 90 | % change in systolic B.P. 1 h ([1]; 0.3 mg/kg p.o.): -36 ± 3%; % change in systolic B.P. 2 h ([1]; 0.3 mg/kg p.o.): -30 ± 1%; % change in systolic B.P. 4 h ([1]; 0.3 mg/kg p.o.): -26 ± 2% |
| 150 | CC1(C)Oc2ccc(C(F)(F)C(F)(F)F)cc2[C@@H](n2ccccc2=O)[C@@H]1O (relative stereo) [Example 5, Trans-3,4-dihydro-2,2-dimethyl-6-pentafluoroethyl-4-(2(1H)-pyridon-1-yl)-2H-1-benzopyran-3-ol] | 97 |  |
|  | CC1(C)Oc2ccc(C(F)(F)C(F)(F)F)cc2[C@@H](N2CCCCC2=O)[C@@H]1O [Example 6, (-)-Trans-3,4-dihydro-2,2-dimethyl-4-(2-oxopiperidin-1-yl)-6-pentafluoroethyl-2H-1-benzopyran-3-ol] | 93 |  |
